# Assay results: the kinase profiling compilation of Christmann-Franck et al. (2016)
# Several values for one entry are separate records, joined by “and”; a condition that tells them apart may be missing. Equal entries are not always repeated.
# Legend:
# Test in all cases: KINOMEscan competition binding
# Conditions in all cases: compound 10.0 µM
# [1] = biological target: PRKACB (human) (UniProt P22694)
# [2] = biological target: CIT (human) (UniProt O14578)
# [3] = biological target: LIMK2 (human) (UniProt P53671)
# Sequence of LIMK2 (human) (P53671 whole entry, looked up): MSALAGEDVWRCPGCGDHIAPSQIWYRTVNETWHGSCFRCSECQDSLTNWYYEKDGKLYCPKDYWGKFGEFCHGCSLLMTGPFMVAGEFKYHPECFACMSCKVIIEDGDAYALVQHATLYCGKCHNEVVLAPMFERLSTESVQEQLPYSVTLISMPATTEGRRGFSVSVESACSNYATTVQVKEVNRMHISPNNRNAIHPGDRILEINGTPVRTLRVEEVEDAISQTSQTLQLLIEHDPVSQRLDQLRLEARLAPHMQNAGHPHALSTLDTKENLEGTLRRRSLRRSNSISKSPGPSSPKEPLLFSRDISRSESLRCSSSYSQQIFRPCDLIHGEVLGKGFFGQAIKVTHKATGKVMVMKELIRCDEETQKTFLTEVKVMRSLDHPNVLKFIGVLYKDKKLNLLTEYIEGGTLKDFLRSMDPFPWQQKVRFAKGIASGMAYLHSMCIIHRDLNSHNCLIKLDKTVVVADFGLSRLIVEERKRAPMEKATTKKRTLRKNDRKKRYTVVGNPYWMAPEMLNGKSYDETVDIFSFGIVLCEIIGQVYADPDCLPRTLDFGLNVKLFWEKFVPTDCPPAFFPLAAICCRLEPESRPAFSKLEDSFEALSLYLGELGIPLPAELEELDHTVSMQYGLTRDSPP
# [4] = biological target: CHEK1 (human) (UniProt O14757)
# Sequence of CHEK1 (human) (O14757 whole entry, looked up): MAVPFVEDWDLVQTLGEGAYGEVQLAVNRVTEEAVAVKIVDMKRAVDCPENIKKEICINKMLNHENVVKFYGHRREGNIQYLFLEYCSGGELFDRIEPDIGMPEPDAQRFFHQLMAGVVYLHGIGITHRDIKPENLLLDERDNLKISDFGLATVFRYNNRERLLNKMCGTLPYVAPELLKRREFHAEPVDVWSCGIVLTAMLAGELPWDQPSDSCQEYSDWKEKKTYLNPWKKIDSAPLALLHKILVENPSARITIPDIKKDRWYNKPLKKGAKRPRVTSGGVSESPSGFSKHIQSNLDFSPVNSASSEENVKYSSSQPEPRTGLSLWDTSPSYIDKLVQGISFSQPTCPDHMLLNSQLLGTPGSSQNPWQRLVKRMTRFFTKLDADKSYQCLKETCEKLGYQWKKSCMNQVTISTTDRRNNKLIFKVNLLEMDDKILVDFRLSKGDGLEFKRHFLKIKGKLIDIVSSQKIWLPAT
# [5] = biological target: CSF1R (human) (UniProt P07333)
# [6] = biological target: TSSK1B (human) (UniProt Q9BXA7)
# Sequence of TSSK1B (human) (Q9BXA7 whole entry, looked up): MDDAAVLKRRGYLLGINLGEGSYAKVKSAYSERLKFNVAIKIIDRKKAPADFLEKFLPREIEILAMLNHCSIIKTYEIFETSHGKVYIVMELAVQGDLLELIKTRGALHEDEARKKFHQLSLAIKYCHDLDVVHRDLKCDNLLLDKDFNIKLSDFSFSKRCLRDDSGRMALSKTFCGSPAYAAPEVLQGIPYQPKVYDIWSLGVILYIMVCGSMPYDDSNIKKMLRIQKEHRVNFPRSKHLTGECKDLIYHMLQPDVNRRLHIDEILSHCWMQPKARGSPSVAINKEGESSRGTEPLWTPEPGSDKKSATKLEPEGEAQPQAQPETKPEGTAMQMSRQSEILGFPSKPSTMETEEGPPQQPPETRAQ
# [7] = biological target: MAPK7 (human) (UniProt Q13164)
# [8] = biological target: CLK2 (human) (UniProt P49760)
# [9] = biological target: CAMK4 (human) (UniProt Q16566)
# [10] = biological target: MYLK (human) (UniProt Q15746)
# Sequence of MYLK (human) (Q15746 whole entry, looked up): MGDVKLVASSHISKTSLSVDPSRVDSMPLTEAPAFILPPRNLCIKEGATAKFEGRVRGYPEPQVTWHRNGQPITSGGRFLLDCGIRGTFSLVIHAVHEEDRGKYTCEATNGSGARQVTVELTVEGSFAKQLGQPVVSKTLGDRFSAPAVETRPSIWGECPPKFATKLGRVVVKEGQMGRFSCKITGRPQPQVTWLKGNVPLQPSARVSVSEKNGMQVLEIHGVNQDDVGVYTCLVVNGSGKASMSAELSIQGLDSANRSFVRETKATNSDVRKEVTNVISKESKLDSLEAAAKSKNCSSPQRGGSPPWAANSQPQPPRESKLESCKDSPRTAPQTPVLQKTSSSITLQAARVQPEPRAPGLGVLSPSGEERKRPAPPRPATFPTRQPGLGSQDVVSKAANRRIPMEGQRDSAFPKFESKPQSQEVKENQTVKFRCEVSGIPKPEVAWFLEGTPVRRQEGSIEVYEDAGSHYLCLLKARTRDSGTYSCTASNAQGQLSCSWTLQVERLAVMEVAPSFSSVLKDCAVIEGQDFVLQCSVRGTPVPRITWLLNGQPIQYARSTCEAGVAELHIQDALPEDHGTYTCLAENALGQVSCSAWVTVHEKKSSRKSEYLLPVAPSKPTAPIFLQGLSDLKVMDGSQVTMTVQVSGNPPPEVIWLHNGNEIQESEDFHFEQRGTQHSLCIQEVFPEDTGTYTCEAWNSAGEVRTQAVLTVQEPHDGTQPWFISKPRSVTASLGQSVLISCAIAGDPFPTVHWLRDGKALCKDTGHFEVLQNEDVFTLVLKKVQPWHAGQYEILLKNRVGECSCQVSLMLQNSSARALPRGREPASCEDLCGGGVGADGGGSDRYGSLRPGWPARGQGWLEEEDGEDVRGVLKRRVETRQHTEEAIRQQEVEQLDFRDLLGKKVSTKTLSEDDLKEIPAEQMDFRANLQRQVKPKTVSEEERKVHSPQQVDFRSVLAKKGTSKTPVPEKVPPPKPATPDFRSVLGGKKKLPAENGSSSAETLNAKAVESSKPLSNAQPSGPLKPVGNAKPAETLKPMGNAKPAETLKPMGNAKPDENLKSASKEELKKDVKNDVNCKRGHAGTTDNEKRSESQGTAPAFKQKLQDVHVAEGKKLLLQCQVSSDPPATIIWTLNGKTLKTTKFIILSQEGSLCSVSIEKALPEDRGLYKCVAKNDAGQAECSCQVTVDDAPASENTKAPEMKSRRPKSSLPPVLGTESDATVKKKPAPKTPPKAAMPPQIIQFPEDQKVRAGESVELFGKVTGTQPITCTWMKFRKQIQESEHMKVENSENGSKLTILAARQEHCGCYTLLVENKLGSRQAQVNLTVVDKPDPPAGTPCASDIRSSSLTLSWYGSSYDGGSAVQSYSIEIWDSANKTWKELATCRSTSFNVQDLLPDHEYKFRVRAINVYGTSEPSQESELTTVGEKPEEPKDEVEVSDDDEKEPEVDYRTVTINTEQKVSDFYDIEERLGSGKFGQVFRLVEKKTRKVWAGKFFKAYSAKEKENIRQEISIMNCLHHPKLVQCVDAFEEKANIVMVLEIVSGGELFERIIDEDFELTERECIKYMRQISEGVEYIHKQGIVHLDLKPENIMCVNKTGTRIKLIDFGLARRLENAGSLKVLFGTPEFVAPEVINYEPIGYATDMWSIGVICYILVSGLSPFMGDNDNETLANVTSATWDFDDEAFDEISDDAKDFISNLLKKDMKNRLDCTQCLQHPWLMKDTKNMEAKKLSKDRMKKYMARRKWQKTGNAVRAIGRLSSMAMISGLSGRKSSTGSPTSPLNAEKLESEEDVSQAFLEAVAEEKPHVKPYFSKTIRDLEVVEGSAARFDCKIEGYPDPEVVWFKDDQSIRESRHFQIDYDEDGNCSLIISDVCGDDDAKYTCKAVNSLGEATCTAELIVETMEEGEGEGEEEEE
# [11] = biological target: LCK (human) (UniProt P06239)
# [12] = biological target: ALK (human) (UniProt Q9UM73)
# [13] = biological target: ADCK4 (human) (UniProt Q96D53)
# Sequence of ADCK4 (human) (Q96D53 whole entry, looked up): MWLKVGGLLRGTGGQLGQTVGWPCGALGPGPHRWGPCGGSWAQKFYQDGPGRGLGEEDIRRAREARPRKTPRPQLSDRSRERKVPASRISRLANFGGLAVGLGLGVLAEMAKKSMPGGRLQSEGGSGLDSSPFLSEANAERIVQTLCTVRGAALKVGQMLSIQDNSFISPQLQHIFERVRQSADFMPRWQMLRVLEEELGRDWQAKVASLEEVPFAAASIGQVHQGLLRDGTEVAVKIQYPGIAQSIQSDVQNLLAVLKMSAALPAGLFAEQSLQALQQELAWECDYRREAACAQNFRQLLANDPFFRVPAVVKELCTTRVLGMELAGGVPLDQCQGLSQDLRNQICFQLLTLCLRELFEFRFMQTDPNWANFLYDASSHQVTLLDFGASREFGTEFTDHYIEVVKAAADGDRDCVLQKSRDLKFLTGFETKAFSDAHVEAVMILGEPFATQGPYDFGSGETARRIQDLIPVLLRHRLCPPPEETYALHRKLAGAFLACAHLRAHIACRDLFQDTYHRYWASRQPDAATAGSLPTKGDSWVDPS
# [14] = biological target: IRAK3 (human) (UniProt Q9Y616)
# [15] = biological target: CSNK1D (human) (UniProt P48730)
# [16] = biological target: HCK (human) (UniProt P08631)
# [17] = biological target: RAF1 (human) (UniProt P04049)
# [18] = biological target: HIPK1 (human) (UniProt Q86Z02)
# [19] = biological target: INSR (human) (UniProt P06213)
# [20] = biological target: PDGFRA (human) (UniProt P16234)
# [21] = biological target: TLK2 (human) (UniProt Q86UE8)
# [22] = biological target: PAK2 (human) (UniProt Q13177)
# [23] = biological target: MAP3K9 (human) (UniProt P80192)
# [24] = biological target: STK11 (human) (UniProt Q15831)
# [25] = biological target: CDK16 (human) (UniProt Q00536)
# [26] = biological target: MERTK (human) (UniProt Q12866)
# [27] = biological target: MARK4 (human) (UniProt Q96L34)
# [28] = biological target: EPHA4 (human) (UniProt P54764)
# [29] = biological target: FER (human) (UniProt P16591)
# Sequence of FER (human) (P16591 whole entry, looked up): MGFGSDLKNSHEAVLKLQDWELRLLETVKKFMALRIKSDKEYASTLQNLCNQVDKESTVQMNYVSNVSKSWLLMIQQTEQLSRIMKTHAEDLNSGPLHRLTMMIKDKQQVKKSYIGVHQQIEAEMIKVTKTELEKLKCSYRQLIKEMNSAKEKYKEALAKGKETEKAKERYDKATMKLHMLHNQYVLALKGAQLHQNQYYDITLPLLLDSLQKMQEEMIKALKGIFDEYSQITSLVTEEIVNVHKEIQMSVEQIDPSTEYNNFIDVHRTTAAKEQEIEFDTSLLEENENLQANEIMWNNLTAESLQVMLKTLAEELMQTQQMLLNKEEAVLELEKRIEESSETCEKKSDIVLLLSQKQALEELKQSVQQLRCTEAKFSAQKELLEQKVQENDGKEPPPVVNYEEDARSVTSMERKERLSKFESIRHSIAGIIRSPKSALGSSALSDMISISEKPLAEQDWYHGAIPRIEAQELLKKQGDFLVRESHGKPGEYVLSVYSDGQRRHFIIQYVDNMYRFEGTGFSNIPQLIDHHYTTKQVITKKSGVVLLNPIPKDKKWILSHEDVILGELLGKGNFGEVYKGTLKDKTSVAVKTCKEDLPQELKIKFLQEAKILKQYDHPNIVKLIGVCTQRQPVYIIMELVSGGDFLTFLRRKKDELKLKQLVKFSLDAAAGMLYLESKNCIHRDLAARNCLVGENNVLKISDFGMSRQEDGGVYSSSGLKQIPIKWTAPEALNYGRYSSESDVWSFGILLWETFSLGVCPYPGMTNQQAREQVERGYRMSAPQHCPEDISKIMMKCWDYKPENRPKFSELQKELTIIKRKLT
# [30] = biological target: CAMKK2 (human) (UniProt Q96RR4)
# [31] = biological target: NEK6 (human) (UniProt Q9HC98)
# Sequence of NEK6 (human) (Q9HC98 whole entry, looked up): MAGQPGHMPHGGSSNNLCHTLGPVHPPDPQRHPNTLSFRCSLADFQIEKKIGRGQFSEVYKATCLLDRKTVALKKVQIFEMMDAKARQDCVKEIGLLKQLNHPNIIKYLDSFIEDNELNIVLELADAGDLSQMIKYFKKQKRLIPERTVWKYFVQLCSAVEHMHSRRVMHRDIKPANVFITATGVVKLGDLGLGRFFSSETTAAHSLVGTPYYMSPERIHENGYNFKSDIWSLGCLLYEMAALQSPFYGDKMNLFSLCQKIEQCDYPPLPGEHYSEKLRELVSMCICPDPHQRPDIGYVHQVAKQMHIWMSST
# [32] = biological target: PTK6 (human) (UniProt Q13882)
# [33] = biological target: CAMK2D (human) (UniProt Q13557)
# [34] = biological target: MAPK14 (human) (UniProt Q16539)
# [35] = biological target: MAP3K7 (human) (UniProt O43318)
# [36] = biological target: FGFR1 (human) (UniProt P11362)
# [37] = biological target: ERBB4 (human) (UniProt Q15303)
# [38] = biological target: PLK4 (human) (UniProt O00444)
# [39] = biological target: MINK1 (human) (UniProt Q8N4C8)
# [40] = system: FLT3 (human), P36888 [ITD]
# [41] = biological target: NEK1 (human) (UniProt Q96PY6)
structure (smiles),measurement,setting,value
O=C1Nc2ccc(I)cc2/C1=C/c1cc(Br)c(O)c(Br)c1,"kinase still bound, per cent of control",[1],100%
same,"kinase still bound, per cent of control",[2],5.6%
same,"kinase still bound, per cent of control",[3],77%
same,"kinase still bound, per cent of control",[4],100%
same,"kinase still bound, per cent of control",[5],71%
same,"kinase still bound, per cent of control",[6],65%
same,"kinase still bound, per cent of control",[7],5%
same,"kinase still bound, per cent of control",[8],15%
same,"kinase still bound, per cent of control",[9],100%
same,"kinase still bound, per cent of control",[10],16%
same,"kinase still bound, per cent of control",[11],38%
same,"kinase still bound, per cent of control",[12],100%
same,"kinase still bound, per cent of control",[13],65%
same,"kinase still bound, per cent of control",[14],62%
same,"kinase still bound, per cent of control",[15],72%
same,"kinase still bound, per cent of control",[16],81%
same,"kinase still bound, per cent of control",[17],0.65%
same,"kinase still bound, per cent of control",[18],11%
same,"kinase still bound, per cent of control",[19],100%
same,"kinase still bound, per cent of control",[20],22%
same,"kinase still bound, per cent of control",[21],83%
same,"kinase still bound, per cent of control",[22],53%
same,"kinase still bound, per cent of control",[23],47%
same,"kinase still bound, per cent of control",[24],84%
same,"kinase still bound, per cent of control",[25],89%
same,"kinase still bound, per cent of control",[26],100%
same,"kinase still bound, per cent of control",[27],100%
same,"kinase still bound, per cent of control",[28],100%
same,"kinase still bound, per cent of control",[29],100%
same,"kinase still bound, per cent of control",[30],9%
same,"kinase still bound, per cent of control",[31],96%
same,"kinase still bound, per cent of control",[32],85%
same,"kinase still bound, per cent of control",[33],41%
same,"kinase still bound, per cent of control",[34],36%
same,"kinase still bound, per cent of control",[35],67%
same,"kinase still bound, per cent of control",[36],77%
same,"kinase still bound, per cent of control",[37],50%
same,"kinase still bound, per cent of control",[38],26%
same,"kinase still bound, per cent of control",[39],2.8%
same,"kinase still bound, per cent of control",[40],33%
same,"kinase still bound, per cent of control",[41],87%
Cc1cc([C@@H](C)Nc2ccccc2C(=O)O)c2nc(N3CCOCC3)cc(=O)n2c1,"kinase still bound, per cent of control",[1],100%
same,"kinase still bound, per cent of control",[2],89%
same,"kinase still bound, per cent of control",[3],100%
same,"kinase still bound, per cent of control",[4],100%
same,"kinase still bound, per cent of control",[5],94%
same,"kinase still bound, per cent of control",[6],100%
same,"kinase still bound, per cent of control",[7],100%
same,"kinase still bound, per cent of control",[8],70%
same,"kinase still bound, per cent of control",[9],100%
same,"kinase still bound, per cent of control",[10],70%
same,"kinase still bound, per cent of control",[11],97%
same,"kinase still bound, per cent of control",[12],100%
same,"kinase still bound, per cent of control",[13],79%
same,"kinase still bound, per cent of control",[14],58%
same,"kinase still bound, per cent of control",[15],86%
same,"kinase still bound, per cent of control",[16],100%
same,"kinase still bound, per cent of control",[17],100%
same,"kinase still bound, per cent of control",[18],100%
same,"kinase still bound, per cent of control",[19],100%
same,"kinase still bound, per cent of control",[20],84%
same,"kinase still bound, per cent of control",[21],88%
same,"kinase still bound, per cent of control",[22],100%
same,"kinase still bound, per cent of control",[23],91%
same,"kinase still bound, per cent of control",[24],98%
same,"kinase still bound, per cent of control",[25],100%
same,"kinase still bound, per cent of control",[26],100%
same,"kinase still bound, per cent of control",[27],100%
same,"kinase still bound, per cent of control",[28],93%
same,"kinase still bound, per cent of control",[29],100%
same,"kinase still bound, per cent of control",[30],100%
same,"kinase still bound, per cent of control",[31],100%
same,"kinase still bound, per cent of control",[32],75%
same,"kinase still bound, per cent of control",[33],95%
same,"kinase still bound, per cent of control",[34],97%
same,"kinase still bound, per cent of control",[35],89%
same,"kinase still bound, per cent of control",[36],89%
same,"kinase still bound, per cent of control",[37],100%
same,"kinase still bound, per cent of control",[38],100%
same,"kinase still bound, per cent of control",[39],100%
same,"kinase still bound, per cent of control",[40],53%
same,"kinase still bound, per cent of control",[41],85%
N#Cc1c(NC(=O)c2cccc3ccccc23)sc2c1CCCC2,"kinase still bound, per cent of control",[1],80%
same,"kinase still bound, per cent of control",[2],100%
same,"kinase still bound, per cent of control",[3],100%
same,"kinase still bound, per cent of control",[4],82%
same,"kinase still bound, per cent of control",[5],100% and 84%
same,"kinase still bound, per cent of control",[6],100%
same,"kinase still bound, per cent of control",[7],96%
same,"kinase still bound, per cent of control",[8],87%
same,"kinase still bound, per cent of control",[9],100%
same,"kinase still bound, per cent of control",[10],99%
same,"kinase still bound, per cent of control",[11],85%
same,"kinase still bound, per cent of control",[12],100%
same,"kinase still bound, per cent of control",[13],100%
same,"kinase still bound, per cent of control",[14],100%
same,"kinase still bound, per cent of control",[15],100%
same,"kinase still bound, per cent of control",[16],92%
same,"kinase still bound, per cent of control",[17],100%
same,"kinase still bound, per cent of control",[18],91%
same,"kinase still bound, per cent of control",[19],100%
same,"kinase still bound, per cent of control",[20],89%
same,"kinase still bound, per cent of control",[21],100%
same,"kinase still bound, per cent of control",[22],97%
same,"kinase still bound, per cent of control",[23],72%
same,"kinase still bound, per cent of control",[24],81%
same,"kinase still bound, per cent of control",[25],100%
same,"kinase still bound, per cent of control",[26],100%
same,"kinase still bound, per cent of control",[27],97%
same,"kinase still bound, per cent of control",[28],100%
same,"kinase still bound, per cent of control",[29],92%
same,"kinase still bound, per cent of control",[30],94%
same,"kinase still bound, per cent of control",[31],92%
same,"kinase still bound, per cent of control",[32],46%
same,"kinase still bound, per cent of control",[33],93%
same,"kinase still bound, per cent of control",[34],100%
same,"kinase still bound, per cent of control",[35],82%
same,"kinase still bound, per cent of control",[36],99%
same,"kinase still bound, per cent of control",[37],100%
same,"kinase still bound, per cent of control",[38],82%
same,"kinase still bound, per cent of control",[39],95%
same,"kinase still bound, per cent of control",[40],97%
same,"kinase still bound, per cent of control",[41],100%
